Results reported in ChEMBL document CHEMBL6103558, “The potential of MAO inhibitors as chemotherapeutics in cancer: A literature survey” (Eur J Med Chem, 2025).

Experiments:
LN-229 = assay: Growth inhibition of human LN-229 cells incubated for 48 hrs by trypan blue exclusion assay; format: functional
HCT-116 [1] = assay: Anticancer activity against human HCT-116 cells assessed as reduction in cell growth by MTT assay; format: functional, cell-based
HCT-116 [2] = assay: Anti-migratory activity against human HCT116 cells assessed as reduction in cell migration at 0.05 uM incubated for 24 hrs by wound healing assay relative to control; format: functional; set-up: scale not given: the % may be the effect or the level left
[3] = target: T1, Amine oxidase [flavin-containing] B (Homo sapiens, UniProt P27338); assay: Binding affinity to MAO-B (unknown origin) measured by MAO-GloTM method
T1 sequence (P27338 whole entry): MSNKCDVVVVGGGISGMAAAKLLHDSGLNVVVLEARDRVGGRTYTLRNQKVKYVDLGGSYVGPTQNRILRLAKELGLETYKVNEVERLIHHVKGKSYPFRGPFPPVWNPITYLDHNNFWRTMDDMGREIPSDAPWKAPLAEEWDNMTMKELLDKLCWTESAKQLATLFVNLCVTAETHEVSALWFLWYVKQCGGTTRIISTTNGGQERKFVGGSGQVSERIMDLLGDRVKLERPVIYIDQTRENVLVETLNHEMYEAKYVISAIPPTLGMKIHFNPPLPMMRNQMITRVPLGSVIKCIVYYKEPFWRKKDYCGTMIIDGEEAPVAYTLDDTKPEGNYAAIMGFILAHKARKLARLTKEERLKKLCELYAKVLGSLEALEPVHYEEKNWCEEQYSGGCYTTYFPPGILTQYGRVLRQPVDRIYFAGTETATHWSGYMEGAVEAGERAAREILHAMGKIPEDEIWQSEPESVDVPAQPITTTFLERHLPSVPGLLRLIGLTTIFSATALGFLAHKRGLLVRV

HCT-116 [4] = assay: Antiproliferative activity against human HCT-116 cells by MTT assay; format: functional, cell-based
MCF7 = assay: Antiproliferative activity against human MCF7 cells by MTT assay; format: functional, cell-based
SK-OV-3 = assay: Antiproliferative activity against human SK-OV-3 cells by MTT assay; format: functional, cell-based
[5] = target: T1, Amine oxidase [flavin-containing] B; assay: Inhibition of human MAO-B
LNCaP = assay: Antiproliferative activity against human LNCap cells assessed as reduction in cell viability incubated for 72 hrs by resazurin dye based assay; format: functional
[6] = target: T2, Amine oxidase [flavin-containing] A (Homo sapiens, UniProt P21397); assay: Binding affinity to human recombinant MAO-A assessed as inhibition constant by MAO-GloTM method
T2 sequence (P21397 whole entry): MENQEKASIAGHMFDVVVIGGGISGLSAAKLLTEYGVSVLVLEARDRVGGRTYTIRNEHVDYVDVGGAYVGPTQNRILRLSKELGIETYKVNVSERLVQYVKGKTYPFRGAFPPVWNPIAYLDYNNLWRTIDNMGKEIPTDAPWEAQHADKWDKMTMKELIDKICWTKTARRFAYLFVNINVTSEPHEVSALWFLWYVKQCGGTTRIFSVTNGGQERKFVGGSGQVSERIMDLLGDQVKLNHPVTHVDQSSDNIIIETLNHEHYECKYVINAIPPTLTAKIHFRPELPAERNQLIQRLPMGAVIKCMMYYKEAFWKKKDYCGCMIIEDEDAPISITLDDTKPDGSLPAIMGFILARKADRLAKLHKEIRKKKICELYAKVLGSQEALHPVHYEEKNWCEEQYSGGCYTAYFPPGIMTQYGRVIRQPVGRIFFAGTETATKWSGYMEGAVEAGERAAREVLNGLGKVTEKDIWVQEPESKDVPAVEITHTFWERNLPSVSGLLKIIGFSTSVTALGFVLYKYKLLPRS

A549 = assay: Antiproliferative activity against human A549 cells; format: functional, cell-based
SW1573 = assay: Antiproliferative activity against human SW1573 cells; format: functional, cell-based
HBL-100 = assay: Antiproliferative activity against human HBL-100 cells; format: functional, cell-based
T47D = assay: Antiproliferative activity against human T47D cells; format: functional, cell-based
WiDr = assay: Antiproliferative activity against human WiDr cells; format: functional, cell-based
[7] = target: T2, Amine oxidase [flavin-containing] A; assay: Inhibition of MAO-A (unknown origin)

SMILES: COc1ccccc1NCCCCCCC(=O)Nc1ccc(CCc2ccc(NC(=O)CCCCCCNc3ccccc3OC)cc2)cc1
- GI50 (LN-229): < 1 µM

SMILES: O=C(Cn1cc(Cn2c(=O)c(Cc3ccccc3)nc3ccccc32)nn1)NNC(=S)Nc1ccccc1
- IC50 (HCT-116 [1]): 7.85 µM
- Activity (HCT-116 [2]): 75%

SMILES: C=C(CCCCCCNc1ccccc1OC)Nc1ccc(CCc2ccc(NC(=C)CCCCCCNc3ccccc3OC)cc2)cc1
- Ki [3]: < 1 µM

SMILES: CN1CCC2=C(C1)C(c1c[nH]c3ccc(Br)cc13)c1cc(Cl)ccc1O2 (centres undefined)
- IC50 (HCT-116 [4]): 4.83 µM
- IC50 (MCF7): 4.83 µM
- IC50 (SK-OV-3): 4.83 µM

SMILES: C/C(=N\Nc1nc(-c2cccc([N+](=O)[O-])c2)cs1)c1ccsc1
- IC50 [5]: 0.0025 µM

SMILES: C/C(=N\Nc1nc(-c2cccc([N+](=O)[O-])c2)cs1)c1cccs1
- IC50 [5]: 0.0068 µM

SMILES: O=c1cc(-c2ccccc2)oc2c(Cl)cc(Cl)cc12
- IC50 (LNCaP): ~10 µM
- Ki [6]: 0.0074 µM

SMILES: O=[N+]([O-])c1ccc(/C=N/Nc2nc(-c3ccccc3)c[se]2)cc1
- IC50 (A549): 24 µM
- IC50 (SW1573): 24 µM
- IC50 (HBL-100): 24 µM
- IC50 (T47D): 24 µM
- IC50 (WiDr): 24 µM
- IC50 [7]: 7.2 µM

SMILES: O=C(Cn1cc(Cn2c(=O)c(Cc3ccccc3)nc3ccccc32)nn1)N/N=C/c1cccnc1
- IC50 (HCT-116 [1]): 18 µM
- Activity (HCT-116 [2]): 75%
